Activity calls are given as the source filed them. The calls are words filed in the database; no cut-off is given here.
What was measured:
[1] = Metabolic stability in CD-1 mouse liver microsomes assessed as half life at 1 uM measured after 60 mins by LC-MS/MS analysis; type: ADME, Microsome
Cytochrome P450 2D6 = Cytochrome P450 2D6 (Homo sapiens, UniProt P10635); test: Inhibition of CYP2D6 in human liver microsomes at 0.01 to 30 uM using dextromethorphan as substrate in presence of NADPH by UPLC-MS/MS analysis; type: ADME, Microsome
Sequence of Cytochrome P450 2D6 (P10635 whole entry): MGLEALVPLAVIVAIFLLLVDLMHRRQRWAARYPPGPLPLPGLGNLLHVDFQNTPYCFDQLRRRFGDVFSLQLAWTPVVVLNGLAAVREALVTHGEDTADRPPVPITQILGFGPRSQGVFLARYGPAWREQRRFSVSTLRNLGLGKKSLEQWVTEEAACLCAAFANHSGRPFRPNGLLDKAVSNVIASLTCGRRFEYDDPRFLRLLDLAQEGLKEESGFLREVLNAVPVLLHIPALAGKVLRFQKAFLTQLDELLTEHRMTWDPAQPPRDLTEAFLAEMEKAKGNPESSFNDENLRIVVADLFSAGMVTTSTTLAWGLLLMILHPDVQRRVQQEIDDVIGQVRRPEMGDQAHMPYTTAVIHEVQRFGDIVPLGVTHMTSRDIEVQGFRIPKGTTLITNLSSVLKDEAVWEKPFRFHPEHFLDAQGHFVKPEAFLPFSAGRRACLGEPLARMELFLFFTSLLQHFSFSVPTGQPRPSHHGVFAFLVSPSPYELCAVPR

Cytochrome P450 1A2 = molecular target: T1, Cytochrome P450 1A2 (Homo sapiens, UniProt P05177); test: Inhibition of CYP1A2 in human liver microsomes at 0.01 to 30 uM […] in presence of NADPH by UPLC-MS/MS analysis; type: ADME, Microsome
T1 sequence (P05177 whole entry): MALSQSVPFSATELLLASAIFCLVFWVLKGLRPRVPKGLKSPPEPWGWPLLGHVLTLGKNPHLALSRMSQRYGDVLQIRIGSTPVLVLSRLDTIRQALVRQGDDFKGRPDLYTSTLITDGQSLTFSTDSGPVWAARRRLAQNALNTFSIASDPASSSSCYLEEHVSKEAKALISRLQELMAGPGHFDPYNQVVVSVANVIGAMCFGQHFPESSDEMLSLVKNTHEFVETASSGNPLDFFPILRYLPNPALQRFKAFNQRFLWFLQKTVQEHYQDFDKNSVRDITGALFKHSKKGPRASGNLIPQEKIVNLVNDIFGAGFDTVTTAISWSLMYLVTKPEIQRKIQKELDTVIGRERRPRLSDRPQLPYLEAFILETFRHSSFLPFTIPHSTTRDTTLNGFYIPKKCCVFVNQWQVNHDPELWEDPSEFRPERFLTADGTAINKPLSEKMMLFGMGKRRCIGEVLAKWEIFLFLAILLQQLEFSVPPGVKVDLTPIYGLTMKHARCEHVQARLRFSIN

LNCaP [2] = test: Induction of apoptosis in human LNCaP cells assessed as apoptotic cells incubated for 72 hrs by annexin V/PI double staining based flow cytometry method; type: functional, cell-based; settings: dose 0.62-2.5 µM, DDE = dose-dependent effect
[3] = molecular target: Ribosomal protein S6 kinase alpha-4 (Homo sapiens) (UniProt O75676); test: Inhibition of MSK2 (unknown origin) at 1 uM in presence of ATP at Km concentration by mobility shift assay relative to control
Sequence of Ribosomal protein S6 kinase alpha-4 (Homo sapiens) (O75676 whole entry, looked up): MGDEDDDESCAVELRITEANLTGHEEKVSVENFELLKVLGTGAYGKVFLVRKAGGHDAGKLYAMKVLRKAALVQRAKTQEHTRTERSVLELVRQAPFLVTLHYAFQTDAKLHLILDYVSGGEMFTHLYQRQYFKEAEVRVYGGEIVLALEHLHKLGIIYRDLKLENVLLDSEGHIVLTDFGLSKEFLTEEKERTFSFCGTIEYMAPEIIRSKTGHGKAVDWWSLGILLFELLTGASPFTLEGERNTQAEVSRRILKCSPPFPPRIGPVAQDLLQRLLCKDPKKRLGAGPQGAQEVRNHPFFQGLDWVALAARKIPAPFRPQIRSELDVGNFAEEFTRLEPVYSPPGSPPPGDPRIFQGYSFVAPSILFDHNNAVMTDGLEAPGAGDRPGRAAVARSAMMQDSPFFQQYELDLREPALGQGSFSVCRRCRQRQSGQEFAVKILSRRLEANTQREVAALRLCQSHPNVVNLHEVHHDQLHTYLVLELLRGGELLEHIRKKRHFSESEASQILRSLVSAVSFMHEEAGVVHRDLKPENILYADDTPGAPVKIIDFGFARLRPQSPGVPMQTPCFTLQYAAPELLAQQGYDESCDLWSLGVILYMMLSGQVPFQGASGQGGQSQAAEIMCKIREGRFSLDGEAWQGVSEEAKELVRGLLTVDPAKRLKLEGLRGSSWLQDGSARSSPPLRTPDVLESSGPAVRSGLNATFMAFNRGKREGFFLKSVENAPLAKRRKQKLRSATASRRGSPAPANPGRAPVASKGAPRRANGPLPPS

[4] = molecular target: Protein kinase C theta type (Homo sapiens) (UniProt Q04759); test: Inhibition of PKCtheta (unknown origin) at 1 uM in presence of ATP at Km concentration by mobility shift assay relative to control
Sequence of Protein kinase C theta type (Homo sapiens) (Q04759 whole entry, looked up): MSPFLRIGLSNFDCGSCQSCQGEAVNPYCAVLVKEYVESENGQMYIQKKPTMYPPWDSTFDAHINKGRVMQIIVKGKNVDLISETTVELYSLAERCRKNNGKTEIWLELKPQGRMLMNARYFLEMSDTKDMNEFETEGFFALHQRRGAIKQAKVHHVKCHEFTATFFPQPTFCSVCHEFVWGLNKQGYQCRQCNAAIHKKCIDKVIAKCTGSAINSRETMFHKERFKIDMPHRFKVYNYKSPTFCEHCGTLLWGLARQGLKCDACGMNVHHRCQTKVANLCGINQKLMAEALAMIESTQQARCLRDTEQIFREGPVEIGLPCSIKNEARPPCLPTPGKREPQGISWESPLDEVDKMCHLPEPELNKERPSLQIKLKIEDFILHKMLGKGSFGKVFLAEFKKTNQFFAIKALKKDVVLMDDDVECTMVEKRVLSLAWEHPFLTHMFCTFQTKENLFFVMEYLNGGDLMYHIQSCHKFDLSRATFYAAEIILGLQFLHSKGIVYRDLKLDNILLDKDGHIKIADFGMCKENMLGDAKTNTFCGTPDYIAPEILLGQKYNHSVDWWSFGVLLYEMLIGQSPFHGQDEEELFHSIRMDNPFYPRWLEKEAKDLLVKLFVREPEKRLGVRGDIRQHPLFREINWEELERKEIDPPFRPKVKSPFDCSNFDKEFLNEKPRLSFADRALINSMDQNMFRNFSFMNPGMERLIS

LNCaP [5] = test: Induction of apoptosis in human LNCaP cells assessed as viable cells at […] incubated for 72 hrs by annexin V/PI double staining based flow cytometry method (reference value: 93.63 %); type: functional; settings: read-out: Activity
LNCaP [6] = test: Induction of apoptosis in human LNCaP cells assessed as early apoptotic cells at […] incubated for 72 hrs by annexin V/PI double staining based flow cytometry method (reference value: […]); type: functional
LNCaP [7] = test: Induction of apoptosis in human LNCaP cells assessed as late apoptotic cells at […] incubated for 72 hrs by annexin V/PI double staining based flow cytometry method (reference value: 2.75 %); type: functional
LNCaP [8] = test: Induction of apoptosis in human LNCaP cells assessed as necrotic cells at 1.25 uM incubated for 72 hrs by annexin V/PI double staining based flow cytometry method (reference value: 2.41%); type: functional
LNCaP [9] = test: Induction of cell cycle arrest in human LNCap cells assessed as accumulation at G0/G1 phase at 0.2 uM incubated for 24 hrs by flow cytometry (reference value: 58.60 %); type: functional
LNCaP [10] = test: Induction of cell cycle arrest in human LNCap cells assessed as decrease in accumulation at S phase at 0.04 to 1 uM incubated for 24 hrs by flow cytometry; type: functional, cell-based; settings: dose 0.04-1 µM
LNCaP [11] = test: Induction of cell cycle arrest in human LNCap cells assessed as decrease in accumulation at G2/M phase at 0.04 to 1 uM incubated for 24 hrs by flow cytometry; type: functional, cell-based; settings: dose 0.04-1 µM
[12] = Metabolic stability in Beagle dog liver microsomes assessed as intrinsic clearance at 1 uM measured after 60 mins by LC-MS/MS analysis; type: ADME, Canis lupus familiaris, Microsome; settings: 1 h
[13] = Metabolic stability in Crab eating monkey liver microsomes assessed hepatic clearance at 1 uM measured after 60 mins by LC-MS/MS analysis; type: ADME, Macaca fascicularis, Microsome; settings: cynomolgus monkey, 1 h
[14] = Cmax in Sprague-Dawley rat at 5 mg/kg, iv measured upto 24 hrs by UPLC-MS/MS analysis; type: ADME, organism-based; design: dose 5 mg/kg, time < 24 hrs, route iv; settings: in vivo
[15] = AUC (0 to t) in Sprague-Dawley rat at 5 mg/kg, iv measured upto 24 hrs by UPLC-MS/MS analysis; type: ADME, organism-based; design: time < 24 hrs, dose 5 mg/kg, route iv; settings: in vivo
[16] = AUC (0 to t) in Sprague-Dawley rat at 10 mg/kg, ig by UPLC-MS/MS analysis; type: ADME, organism-based; design: dose 10 mg/kg, route ig; settings: in vivo, po
[17] = Apparent volume of distribution at steady state in Sprague-Dawley rat at 5 mg/kg, iv measured upto 24 hrs by UPLC-MS/MS analysis; type: ADME, organism-based; settings: in vivo, read-out: Vdss(app)
[18] = Tmax in crab-eating monkey at 6 mg/kg, ig by UPLC-MS/MS analysis; type: ADME, organism-based, Macaca fascicularis; settings: cynomolgus monkey, in vivo, po
[19] = AUC (0 to t) in crab-eating monkey at 3 mg/kg, iv measured upto 24 hrs by UPLC-MS/MS analysis; type: ADME, organism-based, Macaca fascicularis; design: dose 3 mg/kg, time < 24 hrs, route iv; settings: cynomolgus monkey, in vivo
[20] = AUC (0 to infinity) in crab-eating monkey at 3 mg/kg, iv measured upto 24 hrs by UPLC-MS/MS analysis; type: ADME, organism-based, Macaca fascicularis; design: dose 3 mg/kg, time < 24 hrs, route iv; settings: cynomolgus monkey, in vivo
LNCaP [21] = test: Antitumor activity against human LNCaP cells xenografted in NCG mouse assessed as tumor growth inhibition at 25 mg/kg administered once daily for 18 to 21 days relative to control; type: functional; settings: time 18-21 day, read-out: TGI
[22] = Tmax in NCG mouse xenografted with human LNCaP cells at 25 mg/kg administered once daily for 18 to 21 days and measured upto 10 hrs post last dose by LC-MS/MS analysis; type: ADME, organism-based; settings: in vivo, time 18-21 day
[23] = Cmax in NCG mouse xenografted with human LNCaP cells at 25 mg/kg administered once daily for 18 to 21 days and measured upto 10 hrs post last dose by LC-MS/MS analysis; type: ADME, organism-based; design: time upper 21 day, time lower 18 day, dose 25 mg/kg; settings: in vivo
[24] = Cmax in NCG mouse xenografted with human LNCaP cells at 50 mg/kg administered once daily for 18 to 21 days and measured upto 10 hrs post last dose by LC-MS/MS analysis; type: ADME, organism-based; design: dose 50 mg/kg, time 18-21 day; settings: in vivo
[25] = AUC (0 to t) in NCG mouse xenografted with human LNCaP cells at 12.5 mg/kg administered daily once for 18 to 21 days and measured upto 10 hrs post last dose by LC-MS/MS analysis; type: ADME, organism-based; settings: in vivo
[26] = AUC (0 to t) in NCG mouse xenografted with human LNCaP cells at 25 mg/kg administered daily once for 18 to 21 days and measured upto 10 hrs post last dose by LC-MS/MS analysis; type: ADME, organism-based; design: time 18-21 day, dose 25 mg/kg; settings: in vivo
[27] = Metabolic stability in human liver microsomes assessed as parent compound remaining at 1 uM measured after 60 mins by UPLC-MS/MS analysis; type: ADME, Microsome; settings: read-out: Stability

half-life at 1 µM [1]: > 6.45 h | IC50 (Cytochrome P450 2D6): 20.6 µM | IC50 (Cytochrome P450 1A2): > 50 µM | inhibition [3]: 90% | inhibition [4]: 90% | CLH [12]: 1.26 mL/h/kg | CLH [13]: 1.51 mL/h/kg | Cmax [14]: 1690 ng/mL | AUC(0-t) at 24 h [15]: 1760 ng·h/mL | AUC(0-t) [16]: 3880 ng·h/mL | Vd [17]: 7.76 L/kg | Tmax [18]: 4 h | AUC(0-t) at 24 h [19]: 1780 ng·h/mL | AUC(0-inf) [20]: 1880 ng·h/mL | Tmax [22]: 4 h | Cmax [23]: 1980 ng/mL | Cmax [24]: 3050 ng/mL | AUC(0-t) [25]: 7030 ng·h/mL | AUC(0-t) [26]: 13500 ng·h/mL | remaining at 1 h, 1 µM [27]: 62.9%
Compound: CC(C)NC[C@@H](C(=O)N1CCN(c2ncnc3c2[C@H](C)CC(=O)N3)[C@H]2C[C@H]21)c1ccc(Cl)cc1
Activity (LNCaP [2]): Dde | viability at […] (LNCaP [5]; dose 0.62 µM): 79.7% | viability at […] (LNCaP [5]; dose 2.5 µM): 55% | Activity (LNCaP [6]; dose 0.62 µM): 6.55% | Activity (LNCaP [6]; dose 2.5 µM): 22.54% | Activity (LNCaP [7]; dose 0.62 µM): 9.01% | Activity (LNCaP [7]; dose 2.5 µM): 16.43% | Activity (LNCaP [8]): 4.92% | Activity (LNCaP [9]): 82.42% | Activity (LNCaP [10]): Active | Activity (LNCaP [11]): Active | inhibition in vivo at 25 mg/kg (LNCaP [21]): 95.5%
